This note sets out measurements from patent publication US20230086702A1, “SUBSTITUTED 2-AMINO-PYRAZOLYL-[1,2,4]TRIAZOLO[1,5A]PYRIDINE DERIVATIVES AND USE THEREOF” (The Johns Hopkins University, priority 2019, published 2023).

One assay has as its target T1, DLK (Homo sapiens, UniProt Q12852).
T1 construct: 10 nM DLK, catalytic domain, Carna Biosiences; purchased Carna Biosciences ('Carna Biosiences' [sic])
T1 sequence (Q12852 125-366 limits assumed): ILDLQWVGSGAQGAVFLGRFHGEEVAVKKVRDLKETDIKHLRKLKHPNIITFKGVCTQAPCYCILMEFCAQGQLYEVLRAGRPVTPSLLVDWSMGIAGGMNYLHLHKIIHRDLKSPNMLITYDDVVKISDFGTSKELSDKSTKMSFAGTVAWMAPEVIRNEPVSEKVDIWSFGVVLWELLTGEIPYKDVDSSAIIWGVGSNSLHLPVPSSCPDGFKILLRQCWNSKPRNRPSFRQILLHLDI
Put plainly: DLK biochemical assay (TR-FRET, MKK7 phosphorylation). The conditions noted are these: DLK catalytic domain, MKK7 substrate, 60 μM ATP. An outline of the steps:
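TR-FRET read-out (ratio of 665 nm acceptor to Eu donor channel) tracks MKK7 T275/S277 phosphorylation by DLK, using Eu-labelled anti-phospho-MKK7 and XL665-labelled anti-His on His-MKK7. Reactions were stopped and detected in pH 7.5 Tris buffer containing 100 mM EDTA, 100 mM NaCl, 200 mM KF and 0.01% Tween 20.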

For the next assay, the target named is T2, LZK (Homo sapiens, UniProt O43283).
T2 construct: 10 nM LZK, catalytic domain, Carna Biosiences in assay buffer; purchased Carna Biosciences ('Carna Biosiences' [sic])
T2 sequence (O43283 168-409 limits assumed): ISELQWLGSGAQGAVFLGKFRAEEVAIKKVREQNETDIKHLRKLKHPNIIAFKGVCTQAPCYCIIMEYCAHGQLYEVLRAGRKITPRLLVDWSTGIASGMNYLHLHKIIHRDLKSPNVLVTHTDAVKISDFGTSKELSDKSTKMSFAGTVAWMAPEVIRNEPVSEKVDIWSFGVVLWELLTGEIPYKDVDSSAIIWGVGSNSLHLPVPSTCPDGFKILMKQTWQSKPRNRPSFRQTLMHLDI
Put plainly: LZK biochemical assay (TR-FRET, MKK7 phosphorylation). The conditions noted are these: LZK catalytic domain, MKK7 substrate, 15 μM ATP. On the technique in general: In TR-FRET formats the signal depends on donor and acceptor labels being close together.

What is called IC50 is the concentration that inhibits the measured activity by half. Low readings indicate greater potency, high ones weaker potency. In the case of `CC(CF)NC(=O)c1cc(-c2cnn(C3CCOc4ccccc43)c2)cn2nc(N)nc12` (single isomer, unassigned) [Example I-145, 2-Amino-6-[1-(3,4-dihydro-2H-chromen-4-yl)-1H-pyrazol-4-yl]-N-(1-fluoropropan-2-yl)[1,2,4]triazolo[1,5-a]pyridine-8-carboxamide], the IC50 against DLK and on LZK was 110 nM throughout.

Consider `CC(CF)NC(=O)c1cc(-c2cnn(C3CCOc4ccccc43)c2)cn2nc(N)nc12` (single isomer, unassigned) [Example I-146, 2-Amino-6-[1-(3,4-dihydro-2H-chromen-4-yl)-1H-pyrazol-4-yl]-N-(1-fluoropropan-2-yl)[1,2,4]triazolo[1,5-a]pyridine-8-carboxamide], for which the IC50 is 130 nM at DLK and 85 nM against LZK.

In the case of `CC[C@@H](c1ccc(F)cc1)n1cc(-c2cc(C(=O)NC(C)CF)n3nc(N)nc3c2)cn1` (single isomer, unassigned) [Example I-149, 2-Amino-7-{1-[(15)-1-(4-fluorophenyl)propyl]-1H-pyrazol-4-yl}-N-(1-fluoropropan-2-yl)[1,2,4]triazolo[1,5-a]pyridine-5-carboxamide], the IC50 against DLK is 1.7 nM; against LZK, 13 nM.

With `CC[C@@H](c1ccc(F)cc1)n1cc(-c2cc(C(=O)NC(C)CF)n3nc(N)nc3c2)cn1` (single isomer, unassigned) [Example I-150, 2-Amino-7-{1-[(15)-1-(4-fluorophenyl)propyl]-1H-pyrazol-4-yl}-N-(1-fluoropropan-2-yl)[1,2,4]triazolo[1,5-a]pyridine-5-carboxamide], the values for the half-maximal inhibitory concentration (IC50) on DLK and at LZK were 6.5 nM and 60 nM, respectively.

`CCC(c1ccc(C(F)(F)F)nc1)n1cc(-c2cc(C(=O)N[C@@H](C)CO)c3nc(N)nn3c2)cn1` (single isomer, unassigned) [Example I-152]: the results for the IC50 against DLK and on LZK were 0.7 nM and 3.9 nM, respectively.

Turning to `CCC(c1ccc(C(F)(F)F)nc1)n1cc(-c2cc(C(=O)N[C@@H](C)CO)c3nc(N)nn3c2)cn1` (single isomer, unassigned) [Example I-153, 2-Amino-N-[(25)-1-hydroxypropan-2-yl]-6-(1-{1-[6-(trifluoromethyl)pyridin-3-yl]propyl}-1H-pyrazol-4-yl)[1,2,4]triazolo[1,5-a]pyridine-8-carboxamide], the figures for the IC50 at DLK and against LZK were 6.2 nM and 29 nM, respectively.

As to `C[C@@H](CO)NC(=O)c1cc(-c2cnn([C@H](c3ccc(C(F)(F)F)nc3)C3CCOCC3)c2)cn2nc(N)nc12` (single isomer, unassigned) [Example I-155, 2-Amino-N-[(25)-1-hydroxypropan-2-yl]-6-(1-{tetrahydro-2H-pyran-4-yl[6-(trifluoromethyl)pyridin-3-yl]methyl}-1H-pyrazol-4-yl)[1,2,4]triazolo[1,5-a]pyridine-8-carboxamide], the half-maximal inhibitory concentration (IC50) on DLK was determined as 0.7 nM; against LZK, 3.9 nM.

Consider `C[C@@H](CO)NC(=O)c1cc(-c2cnn(C(c3ccc(C(F)(F)F)nc3)C3CCOCC3)c2)cn2nc(N)nc12` (single isomer, unassigned) [Example I-156, 2-Amino-N-[(25)-1-hydroxypropan-2-yl]-6-(1-{tetrahydro-2H-pyran-4-yl[6-(trifluoromethyl)pyridin-3-yl]methyl}-1H-pyrazol-4-yl)[1,2,4]triazolo[1,5-a]pyridine-8-carboxamide], for which the results for the IC50 against DLK and at LZK were 13 nM and 23 nM, respectively.

For `CC[C@@H](c1ccc(OC(F)(F)F)nc1)n1cc(-c2cc(C(=O)N[C@@H](C)CO)c3nc(N)nn3c2)cn1` (single isomer, unassigned) [Example I-158, 2-Amino-N-[(25)-1-hydroxypropan-2-yl]-6-(1-{1-[6-(trifluoromethoxy)pyridin-3-yl]propyl}-1H-pyrazol-4-yl)[1,2,4]triazolo[1,5-a]pyridine-8-carboxamide], the IC50 on DLK was 0.6 nM; against LZK, 3.4 nM.

For `CCC(c1ccc(OC(F)(F)F)nc1)n1cc(-c2cc(C(=O)N[C@@H](C)CO)c3nc(N)nn3c2)cn1` (single isomer, unassigned) [Example I-159], the IC50 came out at 6.7 nM on DLK and 30 nM against LZK.

For `CC(C)C(c1ccc(F)cc1)n1cc(-c2cc(C(=O)N[C@@H](C)CO)c3nc(N)nn3c2)cn1` (single isomer, unassigned) [Example I-161], the figures for the IC50 against DLK and at LZK were 51 nM and 540 nM, respectively.

For the compound `CC(C)[C@@H](c1ccc(F)cc1)n1cc(-c2cc(C(=O)N[C@@H](C)CO)c3nc(N)nn3c2)cn1` (single isomer, unassigned) [Example I-162], the IC50 was determined as 1.3 nM on DLK and 83 nM on LZK.

As for `CC[C@@H](c1ccc(C(F)(F)F)nc1)n1cc(-c2cc(C(=O)NC(C)(C)CO)c3nc(N)nn3c2)cn1` (single isomer, unassigned) [Example I-164, 2-Amino-N-(1-hydroxy-2-methylpropan-2-yl)-6-(1-{1-[6-(trifluoromethyl)pyridin-3-yl]propyl}-1H-pyrazol-4-yl)[1,2,4]triazolo[1,5-a]pyridine-8-carboxamide], the figures for the IC50 against DLK and at LZK were 6.3 nM and 52 nM, respectively.

With `CCC(c1ccc(C(F)(F)F)nc1)n1cc(-c2cc(C(=O)NC(C)(C)CO)c3nc(N)nn3c2)cn1` (single isomer, unassigned) [Example I-165, 2-Amino-N-(1-hydroxy-2-methylpropan-2-yl)-6-(1-{1-[6-(trifluoromethyl)pyridin-3-yl]propyl}-1H-pyrazol-4-yl)[1,2,4]triazolo[1,5-a]pyridine-8-carboxamide], the IC50 came to 64 nM against DLK and 190 nM at LZK.

Consider `CC(C)(CO)NC(=O)c1cc(-c2cnn(C(c3ccc(C(F)(F)F)nc3)C3CCOCC3)c2)cn2nc(N)nc12` (single isomer, unassigned) [Example I-167, 2-Amino-N-(1-hydroxy-2-methylpropan-2-yl)-6-(1-{tetrahydro-2H-pyran-4-yl[6-(trifluoromethyl)pyridin-3-yl]methyl}-1H-pyrazol-4-yl)[1,2,4]triazolo[1,5-a]pyridine-8-carboxamide], for which the figures for the IC50 against DLK and on LZK were 22 nM and 85 nM, respectively.

As to `CC(C)(CO)NC(=O)c1cc(-c2cnn(C(c3ccc(C(F)(F)F)nc3)C3CCOCC3)c2)cn2nc(N)nc12` (single isomer, unassigned) [Example I-168, 2-Amino-N-(1-hydroxy-2-methylpropan-2-yl)-6-(1-{tetrahydro-2H-pyran-4-yl[6-(trifluoromethyl)pyridin-3-yl]methyl}-1H-pyrazol-4-yl)[1,2,4]triazolo[1,5-a]pyridine-8-carboxamide], the IC50 against DLK was determined as 1.5 nM; against LZK, 8.9 nM.

On to `CC[C@@H](c1ccc(OC(F)(F)F)nc1)n1cc(-c2cc(C(=O)NC(C)(C)CO)c3nc(N)nn3c2)cn1` (single isomer, unassigned) [Example I-170, 2-Amino-N-(1-hydroxy-2-methylpropan-2-yl)-6-(1-{1-[6-(trifluoromethoxy)pyridin-3-yl]propyl}-1H-pyrazol-4-yl)[1,2,4]triazolo[1,5-a]pyridine-8-carboxamide], for which the IC50 amounted to 5.5 nM on DLK and 18 nM against LZK.

As to `CCC(c1ccc(OC(F)(F)F)nc1)n1cc(-c2cc(C(=O)NC(C)(C)CO)c3nc(N)nn3c2)cn1` (single isomer, unassigned) [Example I-171, 2-Amino-N-(1-hydroxy-2-methylpropan-2-yl)-6-(1-{1-[6-(trifluoromethoxy)pyridin-3-yl]propyl}-1H-pyrazol-4-yl)[1,2,4]triazolo[1,5-a]pyridine-8-carboxamide], the half-maximal inhibitory concentration (IC50) came out at 85 nM against DLK and 150 nM against LZK.

For the compound `CC(C)C(c1cncc(Cl)c1)n1cc(-c2cc(C(=O)NC(C)(C)CO)c3nc(N)nn3c2)cn1` (single isomer, unassigned) [Example I-173, 2-Amino-6-{1-[1-(5-chloropyridin-3-yl)-2-methylpropyl]-1H-pyrazol-4-yl}-N-(1-hydroxy-2-methylpropan-2-yl)[1,2,4]triazolo[1,5-a]pyridine-8-carboxamide], the IC50 at DLK turned out to be 2 nM; at LZK it was 49 nM.

Take `CC(C)C(c1cncc(Cl)c1)n1cc(-c2cc(C(=O)NC(C)(C)CO)c3nc(N)nn3c2)cn1` (single isomer, unassigned) [Example I-174, 2-Amino-6-{1-[1-(5-chloropyridin-3-yl)-2-methylpropyl]-1H-pyrazol-4-yl}-N-(1-hydroxy-2-methylpropan-2-yl)[1,2,4]triazolo[1,5-a]pyridine-8-carboxamide]: the half-maximal inhibitory concentration (IC50) against DLK was determined as 62 nM; against LZK, 690 nM.

Take `Nc1nc2c(C(=O)N[C@H]3CCOC3)cc(-c3cnn(Cc4cccc5cn[nH]c45)c3)cn2n1` (single isomer, unassigned) [Example I-175]: the IC50 was 3.8 nM against DLK and 150 nM on LZK.

As for `Nc1nc2cc(-c3cnn(C4CCOCC4)c3)cc(C(=O)N[C@H]3CCOC3)n2n1` (single isomer, unassigned) [Example I-176], the values for the IC50 against DLK and against LZK were 220 nM and 210 nM, respectively.
